Laboratory results as given in PMC9586930, “Molecular insights into the distinct signaling duration for the peptide-induced PTH1R activation” (Nature Communications, 2022).
Substitutions are numbered along the chain they refer to.

Assays:
Type in all cases: cell-based
Settings in all cases: for ΔpEC50±SEM: relative to WT, n = 3 in triplicate; for ΔpEC50±SEM / Span±SEM: mean ± SEM; for Span±SEM: window between maximal response (Emax) and vehicle, n = 3
[1] = target: T1, WT PTH1R (Homo sapiens, UniProt Q03431); test: cAMP accumulation assay (GloSensor), wild-type PTH1R
T1 construct: a flag-tag was fused to the N terminal of full-length PTH1R (WT or mutant); expressed in transfected cells; host or cells: HEK293T
T1 sequence (Q03431 27-593): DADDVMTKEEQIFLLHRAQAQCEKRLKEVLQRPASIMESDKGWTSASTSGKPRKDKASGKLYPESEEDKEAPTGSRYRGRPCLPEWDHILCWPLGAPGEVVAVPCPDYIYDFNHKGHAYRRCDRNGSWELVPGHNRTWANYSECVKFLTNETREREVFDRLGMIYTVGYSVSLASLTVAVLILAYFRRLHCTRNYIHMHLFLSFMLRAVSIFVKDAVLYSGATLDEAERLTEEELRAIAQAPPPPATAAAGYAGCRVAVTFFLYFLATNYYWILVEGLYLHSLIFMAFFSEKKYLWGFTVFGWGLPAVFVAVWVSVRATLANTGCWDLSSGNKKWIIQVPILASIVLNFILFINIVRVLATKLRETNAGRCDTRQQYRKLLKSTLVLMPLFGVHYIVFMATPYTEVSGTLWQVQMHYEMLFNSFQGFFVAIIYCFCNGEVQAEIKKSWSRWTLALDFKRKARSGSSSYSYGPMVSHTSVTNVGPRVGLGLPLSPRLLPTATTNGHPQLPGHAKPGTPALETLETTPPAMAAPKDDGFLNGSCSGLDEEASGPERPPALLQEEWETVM
Experimental: (§1) Human embryonic kidney 293 T (HEK293T, ATCC: CRL-1573) cells were transfected with a plasmid mixture consisting of pcDNA3.1-flag-PTH1R (WT or mutants) and the cAMP biosensor GloSensor-22F (Promega) at a ratio of 2:1 (see Supplementary Table 7 for a list of primers used in this study). After 24 h, transfected cells were plated onto a 384-well plate, which was treated with cell adherent reagent (Applygen) in advance. After another 12 h, cells were treated with Hank’s balanced salt solution for starvation and then incubated in CO2-independent media containing 4% GloSensor cAMP Reagent (Promega) at a volume of 5 μl per well and incubated for 20 min at RT before measurements for baseline luminescence (Spark Multimode microplate reader, TECAN). Next, test ligands were added at different concentrations from 10^−6 to 10^−13 M before second measurement. Finally, data were normalized to 100% of the maximal PTH (1-34) response for WT PTH1R using a sigmoidal dose-response in GraphPad Prism.
(§2) Statistical analyses were performed on at least three individual datasets and analysed using GraphPad Prism software. Bars represent differences in the calculated agonist potency (pEC50) and maximum agonist response (Emax) for each mutant relative to the WT receptor. Data are mean± s.e.m. from at least three independent experiments, performed in triplicates. ns, not significant, ^nsP > 0.01; ^*P < 0.01; ^**P < 0.001; ^***P < 0.0001 (one-way analysis of variance (ANOVA) followed by Dunnett’s test, compared with the response of the WT). For dose-response experiments, data were normalized and analyzed using nonlinear curve fitting for the log (agonist) versus response (three parameters) curves.

[2] = target: T2, PTH1R E180A mutant (Homo sapiens, UniProt Q03431, E180A); test: cAMP accumulation assay (GloSensor), PTH1R E180A
T2 construct: a flag-tag was fused to the N terminal of full-length PTH1R (WT or mutant); expressed in transfected cells; host or cells: HEK293T
T2 sequence (Q03431 27-593 E180A): T1 sequence (Q03431 27-593) with E154A
Experimental: as §1, §2

[3] = target: T3, PTH1R L436A mutant (Homo sapiens, UniProt Q03431, L436A); test: cAMP accumulation assay (GloSensor), PTH1R L436A
T3 construct: a flag-tag was fused to the N terminal of full-length PTH1R (WT or mutant); expressed in transfected cells; host or cells: HEK293T
T3 sequence (Q03431 27-593 L436A): T1 sequence (Q03431 27-593) with L410A
Experimental: as §1, §2

span (from the WT) ([1]; PTH1R WT, replicate 1) | ΔpEC50 (from the WT) ([1]; PTH1R WT, replicate 1) | span (from the WT) ([1]; PTH1R WT, replicate 2) | ΔpEC50 (from the WT) ([1]; PTH1R WT, replicate 2) | span (from the WT) ([1]; PTH1R WT, replicate 3) | ΔpEC50 (from the WT) ([1]; PTH1R WT, replicate 3) | ΔpEC50±SEM [1] | ΔpEC50 (from the WT) ([1]; replicate 1) | ΔpEC50 (from the WT) ([1]; replicate 2) | ΔpEC50 (from the WT) ([1]; replicate 3) | Span±SEM [1] | span (from the WT) ([2]; PTH1R E1801.32A, replicate 1) | ΔpEC50 (from the WT) ([2]; PTH1R E1801.32A, replicate 1) | span (from the WT) ([2]; PTH1R E1801.32A, replicate 2) | ΔpEC50 (from the WT) ([2]; PTH1R E1801.32A, replicate 2) | span (from the WT) ([2]; PTH1R E1801.32A, replicate 3) | ΔpEC50 (from the WT) ([2]; PTH1R E1801.32A, replicate 3) | ΔpEC50±SEM [2] | ΔpEC50 (from the WT) ([2]; replicate 1) | ΔpEC50 (from the WT) ([2]; replicate 2) | Substance | also measured
106.8 | 0 | 118.8 | 0 | 116.4 | 0 | 0 | 0 | 0 | 0 | 114.00±3.67 | 111 | -0.03 | 162.5 | 0.025 | 202.3 | 0.095 | 0.03±0.04 | -0.03 | 0.025 | H-AVAEIQLMHQRAKWIQDARRRAFLHKLIAEIHTAEI-OH [LA-PTH, long-acting PTH analog, modified PTH/PTHrP hybrid] | ΔpEC50 (from the WT) ([2]; replicate 3): 0.095; Span±SEM [2]: 158.60±26.43; span (from the WT) ([3]; PTH1R L4367.34A, replicate 1): 237.8; ΔpEC50 (from the WT) ([3]; PTH1R L4367.34A, replicate 1): 0.088; span (from the WT) ([3]; PTH1R L4367.34A, replicate 2): 171.3; ΔpEC50 (from the WT) ([3]; PTH1R L4367.34A, replicate 2): -0.137; span (from the WT) ([3]; PTH1R L4367.34A, replicate 3): 194.5; ΔpEC50 (from the WT) ([3]; PTH1R L4367.34A, replicate 3): 0.085; ΔpEC50±SEM [3]: 0.01±0.07; ΔpEC50 (from the WT) ([3]; replicate 1): 0.088; ΔpEC50 (from the WT) ([3]; replicate 2): -0.137; ΔpEC50 (from the WT) ([3]; replicate 3): 0.085; Span±SEM [3]: 201.20±19.49
125.1 | 0 | 136.6 | 0 | 114.9 | 0 | 0 | 0 | 0 | 0 | 125.53±6.27 | 108.2 | -0.151 | 115.5 | -0.207 | 203.5 | 0.036 | -0.11±0.07 | -0.151 | -0.207 | H-SVSEIQLMHNLGKHLNSMERVEWLRKKLQDVHNF-OH [PTH, Teriparatide, human PTH 1-34, long-acting peptide agonist of PTH1R] | Emax ([1]; HEK293T cells, from curve fitting dose-response data): 103.1 luminescence counts per 500ms; ΔpEC50 (from the WT) ([2]; replicate 3): 0.036; Span±SEM [2]: 193.57±39.96; span (from the WT) ([3]; PTH1R L4367.34A, replicate 1): 270.9; ΔpEC50 (from the WT) ([3]; PTH1R L4367.34A, replicate 1): 0.137; span (from the WT) ([3]; PTH1R L4367.34A, replicate 2): 204.3; ΔpEC50 (from the WT) ([3]; PTH1R L4367.34A, replicate 2): 0.015; span (from the WT) ([3]; PTH1R L4367.34A, replicate 3): 186.9; ΔpEC50 (from the WT) ([3]; PTH1R L4367.34A, replicate 3): 0.016; ΔpEC50±SEM [3]: 0.06±0.04; ΔpEC50 (from the WT) ([3]; replicate 1): 0.137; ΔpEC50 (from the WT) ([3]; replicate 2): 0.015; ΔpEC50 (from the WT) ([3]; replicate 3): 0.016; Span±SEM [3]: 220.70±25.60

Substance | span (from the WT) ([1]; PTH1R WT, replicate 1) | ΔpEC50 (from the WT) ([1]; PTH1R WT, replicate 1) | span (from the WT) ([1]; PTH1R WT, replicate 2) | ΔpEC50 (from the WT) ([1]; PTH1R WT, replicate 2) | span (from the WT) ([1]; PTH1R WT, replicate 3) | ΔpEC50 (from the WT) ([1]; PTH1R WT, replicate 3) | ΔpEC50±SEM [1] | ΔpEC50 (from the WT) ([1]; replicate 1) | ΔpEC50 (from the WT) ([1]; replicate 2) | ΔpEC50 (from the WT) ([1]; replicate 3) | Span±SEM [1] | span (from the WT) ([2]; PTH1R E1801.32A, replicate 1) | ΔpEC50 (from the WT) ([2]; PTH1R E1801.32A, replicate 1) | span (from the WT) ([2]; PTH1R E1801.32A, replicate 2) | ΔpEC50 (from the WT) ([2]; PTH1R E1801.32A, replicate 2) | span (from the WT) ([2]; PTH1R E1801.32A, replicate 3) | ΔpEC50 (from the WT) ([2]; PTH1R E1801.32A, replicate 3) | ΔpEC50±SEM [2] | ΔpEC50 (from the WT) ([2]; replicate 1) | ΔpEC50 (from the WT) ([2]; replicate 2) | also measured
H-AVSEHQLLHDKGKSIQDLRRRELLEKLL-{Aib}-KLHTA-NH2 [ABL, Abaloparatide, an analog of PTHrP, short-acting PTH1R agonist] | 115.9 | 0 | 122.2 | 0 | 127.3 | 0 | 0 | 0 | 0 | 0 | 121.80±3.30 | 108.1 | -0.513 | 146.6 | -0.61 | 148 | -0.513 | -0.55±0.03 | -0.513 | -0.61 | ΔpEC50 (from the WT) ([2]; replicate 3): -0.513; Span±SEM [2]: 134.23±13.07; span (from the WT) ([3]; PTH1R L4367.34A, replicate 1): 166.5; ΔpEC50 (from the WT) ([3]; PTH1R L4367.34A, replicate 1): -0.45; span (from the WT) ([3]; PTH1R L4367.34A, replicate 2): 265; ΔpEC50 (from the WT) ([3]; PTH1R L4367.34A, replicate 2): -0.73; span (from the WT) ([3]; PTH1R L4367.34A, replicate 3): 245.1; ΔpEC50 (from the WT) ([3]; PTH1R L4367.34A, replicate 3): -0.7; ΔpEC50±SEM [3]: -0.63±0.09; ΔpEC50 (from the WT) ([3]; replicate 1): -0.45; ΔpEC50 (from the WT) ([3]; replicate 2): -0.73; ΔpEC50 (from the WT) ([3]; replicate 3): -0.7; Span±SEM [3]: 225.53±30.07
